Data from patent US10851102B2, “Imidazole and triazole containing bicyclic compounds as JAK inhibitors” (THERAVANCE BIOPHARMA R&D IP, LLC, priority 2019, dated 2020).

How the values were obtained:
[1] = tested on: IL-2 stimulated pSTAT5 in CD4+ T cells isolated from murine splenocytes (JAK3); assay: Inhibition of IL-2 stimulated pSTAT5 in CD4+ T cells isolated from murine splenocytes; assay type: cell-based; settings: Mus musculus, IL-2 7 ng/ml, read-out: pIC50, inhibition of IL-2 stimulated pSTAT5 (converted)
Procedure: Assay 3: Inhibition of IL-2 Stimulated pSTAT5 in CD4+ T Cells Isolated from Murine Splenocytes
The potency of test compounds for inhibition of interleukin-2 (IL-2) stimulated STATS phosphorylation was measured in the CD4+ T cells isolated from murine splenocytes using AlphaLisa. Because IL-2 signals through JAK3, this assay provides a measure of JAK3 cellular potency in mouse.
Phosphorylated STATS was measured via the AlphaLISA SureFire Ultra pSTAT5 (Tyr694/699) kit (PerkinElmer).
CD4+ T cells were isolated from murine splenocytes via negative selection on a magnetic column (Miltnyi Biotec) and re-suspended in assay media (phenol red-free DMEM (Life Technologies) supplemented with 10% FBS (ATCC)). Cells were seeded at 50,000 cells/well in assay media (2 μL/well). Compounds were serially diluted in DMSO and diluted to 2× final concentration in assay media. Compound was added (4 μl/well) and the cells incubated at 37° C., 5% CO2 for 1 hour, followed by the addition of IL-2 (R&D Systems; final concentration 7 ng/ml) in pre-warmed assay media (2 μL) for 30 minutes. After cytokine stimulation, cells were lysed with 2 μl of 5× AlphaLisa Lysis Buffer (PerkinElmer). The lysate was shaken at 900 rpm for 10 minutes at room temperature (RT). Phosphorylated STATS was measured via the pSTAT5 AlphaLisa kit (PerkinElmer). Freshly prepared acceptor bead mixture was dispensed onto lysate (5 ul) under green filtered <100 lux light. Plates were shaken at 900 rpm for 2 mins, briefly spun down, and incubated for 2 hrs at RT in the dark. Donor beads were dispensed (5 μl) under green filtered <100 lux light. Plates were shaken at 900 rpm for 2 mins, briefly spun down, and incubated overnight at RT in the dark. Luminescence was measured with excitation at 689 nm and emission at 570 nm using an EnVision plate reader (PerkinElmer) under green filtered <100 lux light.
To determine the inhibitory potency of test compounds in response to IL-2, the average emission intensity of beads bound to pSTATS was measured in primary CD4+ T cells isolated from murine splenocytes. IC50 values were determined from analysis of the inhibition curves of signal intensity vs compound concentration. Data are expressed as pIC50 (negative decadic logarithm IC50) values (mean±standard deviation).

Caco-2 cell monolayers = assay: Caco-2 permeation assay; assay type: in vitro ADME, human; settings: 5 μM, A to B, + Verapamil 25 μM, 120 minutes
Description: Assay 5: Caco-2 Permeation Assay

Tyk2 = Tyk2 (Homo sapiens (Human), UniProt P29597); assay: Biochemical JAK and Tyk2 kinase assays (LanthaScreen): Tyk2; settings: 1 h pre-incubation, ATP at Km; pIC50 converted to pKi by Cheng-Prusoff
Sequence of Tyk2 (P29597 whole entry): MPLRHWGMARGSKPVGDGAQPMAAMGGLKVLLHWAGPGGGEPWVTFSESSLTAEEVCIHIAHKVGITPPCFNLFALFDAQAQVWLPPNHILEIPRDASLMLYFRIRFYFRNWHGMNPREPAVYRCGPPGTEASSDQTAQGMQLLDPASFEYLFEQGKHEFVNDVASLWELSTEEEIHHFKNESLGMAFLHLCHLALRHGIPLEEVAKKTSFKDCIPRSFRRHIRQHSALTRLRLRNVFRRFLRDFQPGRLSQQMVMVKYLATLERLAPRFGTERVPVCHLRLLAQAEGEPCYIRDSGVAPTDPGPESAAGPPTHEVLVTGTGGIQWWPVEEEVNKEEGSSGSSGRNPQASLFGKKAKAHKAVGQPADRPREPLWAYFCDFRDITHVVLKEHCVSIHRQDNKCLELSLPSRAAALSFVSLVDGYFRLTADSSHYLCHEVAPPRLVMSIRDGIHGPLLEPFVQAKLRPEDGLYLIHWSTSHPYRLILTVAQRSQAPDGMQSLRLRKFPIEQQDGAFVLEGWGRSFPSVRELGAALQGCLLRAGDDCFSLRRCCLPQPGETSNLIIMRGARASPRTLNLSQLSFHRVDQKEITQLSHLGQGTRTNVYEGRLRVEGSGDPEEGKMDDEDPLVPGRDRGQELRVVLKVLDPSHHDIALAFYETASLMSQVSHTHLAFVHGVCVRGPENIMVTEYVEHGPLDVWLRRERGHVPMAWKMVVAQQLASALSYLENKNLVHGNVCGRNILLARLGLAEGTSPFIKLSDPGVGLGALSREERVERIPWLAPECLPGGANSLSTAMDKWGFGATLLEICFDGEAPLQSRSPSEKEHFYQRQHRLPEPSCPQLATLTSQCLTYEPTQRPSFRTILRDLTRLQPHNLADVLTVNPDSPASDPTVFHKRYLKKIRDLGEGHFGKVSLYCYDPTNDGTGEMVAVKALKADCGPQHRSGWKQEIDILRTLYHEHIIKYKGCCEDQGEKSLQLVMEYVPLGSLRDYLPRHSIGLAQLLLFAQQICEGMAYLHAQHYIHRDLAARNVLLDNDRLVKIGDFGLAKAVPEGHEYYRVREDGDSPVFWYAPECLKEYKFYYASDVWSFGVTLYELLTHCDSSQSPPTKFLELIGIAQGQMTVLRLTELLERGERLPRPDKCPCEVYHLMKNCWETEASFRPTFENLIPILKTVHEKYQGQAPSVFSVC
In short: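 LanthaScreen format using GST-tagged JAK enzymes, 1 h compound preincubation and 1 h ATP-initiated reaction at ambient temperature, in pH 7.5 HEPES buffer with 1% DMSO. Values are Cheng-Prusoff pKi.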

SMILES | IC50 [1] [µM] | Caco Kp 10^−6 cm/sec (Caco-2 cell monolayers) | Tyk 2 (pKi) (Tyk2)
C=CC(=O)N1CC(COc2cc(-c3cc(F)c(O)cc3CC)cn3cncc23)C1 [Example 13, 1-(3-(((6-(2-ethyl-5-fluoro-4-hydroxyphenyl)imidazo[1,5-a]pyridin-8-yl)oxy)methyl)azetidin-1-yl)prop-2-en-1-one] | < 1 | A (A represents a value below 5×10^−6 cm/sec) | E (E represents a pKi value of 7 or below (Ki of 100 nM or above))
C=CC(=O)N1CC(COc2cc(-c3ccc(O)c(Cl)c3)cn3cncc23)C1 [Example 12, 1-(3-(((6-(3-chloro-4-hydroxyphenyl)imidazo[1,5-a]pyridin-8-yl)oxy)methyl)azetidin-1-yl)prop-2-en-1-one] | < 1 | A (A represents a value below 5×10^−6 cm/sec) | E (E represents a pKi value of 7 or below (Ki of 100 nM or above))
